In patent US20240350444A1, “COMBINATION COMPRISING DECANOIC ACID FOR THE TREATMENT OF EPILEPSY” (priority 2017, published 2024):
Where two headings read alike, the source gives them in different places.

How the values were obtained:
[1] = test system: PTZ-induced epileptiform activity in rat entorhinal cortex-hippocampal slices; experiment: Rat hippocampal PTZ seizure-like activity analysis; assay type: cell-based; conditions: for seizure activity: modelled data; for IC50: Rattus norvegicus, read-out: decanoic acid IC50 for epileptiform activity
Description: FIG. 3. (A) Epileptiform (paroxysmal) activity was induced in rat entorhinal cortex-hippocampal slices by application of PTZ (2 mM) and [K+] (to 6 mM), and recorded over time at fixed perampanel and increasing decanoic acid (DA) concentration. (B) Epileptiform activity was normalised to activity in absence or presence of each concentration (100 nM and 500 nM) and shown at variable DA concentrations. […] Data is derived from at least three biological repeats.
Seizure-like activity was induced, as previously described (Chang et al. 2016. Brain 139: 431-43), in rat entorhinal cortex-hippocamal slices by application of PTZ (2 mM) to the perfusate and [K+] was increased (to 6 mM). Perampanel (100 or 500 nM) or DMSO was applied to the perfusate, and then decanoic acid (Sigma Ltd) was applied at increasing concentrations at 10 minutes intervals. The change in the frequency of the discharges was measured at minute intervals, averaged every 5 minutes, and normalised to baseline. Data were analyzed using Origin (OriginLab Corporation, MA USA) and SPSS (IBM, UK) with IC50 values calculated from fitting data values with a Hill plot. Statistical analysis was performed using a one-way ANOVA with two-way Dunnett's post hoc test.

AMPA receptor GluA1/2 = target: T1, AMPA receptor GluA1/2 (Homo sapiens, UniProt P42261+P42262); experiment: Direct AMPA receptor current recording (TEVC) in Xenopus oocytes, GluA1/2; assay type: cell-based
T1 construct: expressed in transfected cells; host or cells: Xenopus laevis oocytes
Description: (§1) FIG. 1. AMPA (GluA2/3, GluA1/2, or GluA3) receptors were expressed in Xenopus oocytes, and perfused with L-glutamate (100 μM) and the indicated compound, unless stated otherwise. Currents were recorded using TEVC. (A) Representative current traces of inhibitory dose-response curves for perampanel on GluA1/2 and GluA2/3 receptors. (B) Dose-response curve showing inhibition of GluA1/2 (N=10) and GluA2/3 (N=6) by perampanel, with respective IC50 values shown in bar graph inset. (C) Effect of varying perampanel concentrations on glutamate EC50 against GluA1/2. Points were normalised to maximal response and represent the mean and SEM of 6 (glutamate only) and 5 (with 2.5 μM and 5 μM perampanel). (D) Quantitative representation of mean currents recorded in wildtype and mutant GluA3 normalised to maximal responses in the presence of perampanel (N=5 for wildtype and N=6 for mutant) and decanoic acid, DA (N=4 for both wildtype and mutant).
(§2) FIG. 2. AMPA (GluA2/3, GluA 1/2, or GluA3) receptors were expressed in Xenopus oocytes, and perfused with L-glutamate (100 μM) and the indicated compound, unless stated otherwise. Currents were recorded using TEVC. (A) Representative current traces of inhibitory dose-response curves for decanoic acid (DA) on GluA2/3 receptors at 1 μM or 4 μM perampanel. Dose-response inhibition curves for decanoic acid at 1μM or 4 μM perampanel on (B) GluA2/3 and (C) GluA1/2 receptors. Points were normalised to maximal response to L-glutamate and solvent, 1 μM perampanel or 4 μM perampanel and represent means and SEM of 8 to 13 readings. Inserts show respective ICs50 values in the presence of perampanel. (D) Representative current traces of inhibitory dose-response curves for perampanel on GluA2/3 receptors at 50 μM to 100 μM decanoic acid. (E), (F) Dose-response inhibition curves for perampanel at 50 μM and 100 μM DA on GluA2/3 (E) and GluA1/2 (F) receptors. Points were normalised to maximal response to L-glutamate with solvent, 50 μM and 100 μM DA and represent means and SEM of 8 to 13 readings. Inserts show respective perampanel IC50 values in the presence of DA. Scale bars correspond to 150 nA in GluA1/2 and 30 nA in GluA2/3 (A), 50 nA (E) and 200 nA (H). Scale bars correspond to 60 nA for +1 μM perampanel and 75 nA for +4 μM perampanel (K) and 200 nA (L).
(§3) As previously described (Chang et al. 2016. Brain 139: 431-43), AMPA receptor subunits (GluA2/3, GluA1/2, and GluA3) were expressed in Xenopus oocytes and agonist elicited inward currents were used to measure inhibition by decanoic acid (Sigma Ltd) and perampanel (Apexmol Technology Co. Ltd).

[2] = target: T2, wild type AMPA receptor (GluA3) (Homo sapiens, UniProt P42263); experiment: Direct AMPA receptor current recording in Xenopus oocytes, wild type GluA3; assay type: cell-based
T2 construct: expressed in transfected cells; host or cells: Xenopus oocytes
Description: as §1, §3
(§4) To confirm this, we expressed a GYKI resistant subunit GluA3 mutant (11) and assessed it for sensitivity to perampanel and decanoic acid (FIG. 1C).

[3] = test system: GYKI resistant subunit GluA3 mutant; experiment: Direct AMPA receptor current recording in Xenopus oocytes, GYKI resistant GluA3 mutant; assay type: cell-based
Description: as §1, §3, §4

AMPA receptor GluA2/3 = target: T3, AMPA receptor GluA2/3 (Homo sapiens, UniProt P42262+P42263); experiment: Direct AMPA receptor current recording (TEVC) in Xenopus oocytes, GluA2/3; assay type: cell-based
T3 construct: expressed in transfected cells; host or cells: Xenopus laevis oocytes
Description: as §1, §2, §3

[4] = Decanoic acid levels in patients on the MCT ketogenic diet; assay type: in vivo; conditions: extrapolating the rodent ratio to human brain
[5] = patients on the MCT ketogenic diet; cited from earlier work
[6] = rodent models; cited from earlier work
[7] = IC50, inhibition of AMPA receptor currents, perampanel alone, currents elicited by glutamate, Xenopus oocytes (FIG. 1B)
[8] = read-out: glutamate evoked maximal response reduced to

T1 sequence (P42261 19-906): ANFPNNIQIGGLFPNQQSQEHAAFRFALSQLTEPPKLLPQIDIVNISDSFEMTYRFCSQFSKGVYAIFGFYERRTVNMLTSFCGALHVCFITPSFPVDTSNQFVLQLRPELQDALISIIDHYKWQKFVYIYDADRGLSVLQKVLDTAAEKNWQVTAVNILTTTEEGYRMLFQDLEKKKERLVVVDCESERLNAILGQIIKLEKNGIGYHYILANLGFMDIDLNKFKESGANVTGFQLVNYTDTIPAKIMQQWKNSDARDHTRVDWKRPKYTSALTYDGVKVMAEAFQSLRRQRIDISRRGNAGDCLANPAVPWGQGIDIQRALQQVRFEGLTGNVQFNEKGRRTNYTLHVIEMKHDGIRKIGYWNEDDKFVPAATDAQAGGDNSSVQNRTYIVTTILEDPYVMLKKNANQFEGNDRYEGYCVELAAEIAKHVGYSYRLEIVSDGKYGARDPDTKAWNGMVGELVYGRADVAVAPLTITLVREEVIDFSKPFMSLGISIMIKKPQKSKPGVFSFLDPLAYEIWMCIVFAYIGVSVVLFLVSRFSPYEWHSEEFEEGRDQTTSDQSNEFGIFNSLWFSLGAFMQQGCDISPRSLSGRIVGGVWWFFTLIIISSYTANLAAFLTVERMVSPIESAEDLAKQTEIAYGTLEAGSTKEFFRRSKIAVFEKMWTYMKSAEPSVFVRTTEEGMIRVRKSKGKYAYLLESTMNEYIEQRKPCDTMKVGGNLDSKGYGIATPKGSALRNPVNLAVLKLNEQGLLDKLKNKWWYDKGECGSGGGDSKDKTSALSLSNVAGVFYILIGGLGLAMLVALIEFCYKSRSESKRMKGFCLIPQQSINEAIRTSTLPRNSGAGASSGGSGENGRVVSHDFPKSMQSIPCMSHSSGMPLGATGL
T1 sequence (P42262 22-883 limits assumed): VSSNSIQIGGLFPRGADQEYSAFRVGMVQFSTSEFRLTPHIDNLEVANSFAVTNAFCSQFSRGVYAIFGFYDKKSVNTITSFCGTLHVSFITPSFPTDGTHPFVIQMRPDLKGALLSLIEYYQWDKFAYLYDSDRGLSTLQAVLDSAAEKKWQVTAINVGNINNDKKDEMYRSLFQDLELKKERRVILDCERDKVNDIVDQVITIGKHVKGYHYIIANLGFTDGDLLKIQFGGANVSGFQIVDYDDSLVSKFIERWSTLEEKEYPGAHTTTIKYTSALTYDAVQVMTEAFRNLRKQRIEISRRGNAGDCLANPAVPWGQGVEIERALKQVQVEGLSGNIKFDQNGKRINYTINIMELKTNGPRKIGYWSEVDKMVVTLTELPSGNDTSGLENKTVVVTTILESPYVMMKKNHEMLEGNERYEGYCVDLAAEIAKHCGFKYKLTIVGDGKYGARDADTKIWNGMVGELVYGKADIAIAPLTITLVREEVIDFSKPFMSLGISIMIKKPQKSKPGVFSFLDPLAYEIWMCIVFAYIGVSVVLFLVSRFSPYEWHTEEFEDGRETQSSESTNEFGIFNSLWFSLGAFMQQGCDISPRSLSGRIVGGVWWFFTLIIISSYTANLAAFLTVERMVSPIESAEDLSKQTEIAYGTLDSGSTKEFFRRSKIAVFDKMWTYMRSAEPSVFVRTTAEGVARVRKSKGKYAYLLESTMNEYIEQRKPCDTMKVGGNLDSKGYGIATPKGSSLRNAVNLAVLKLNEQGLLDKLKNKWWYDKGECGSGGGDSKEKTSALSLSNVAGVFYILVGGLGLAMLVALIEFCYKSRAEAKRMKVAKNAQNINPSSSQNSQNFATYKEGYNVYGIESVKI
T3 sequence (P42262 22-883 limits assumed): as above
T3 sequence (P42263 29-894): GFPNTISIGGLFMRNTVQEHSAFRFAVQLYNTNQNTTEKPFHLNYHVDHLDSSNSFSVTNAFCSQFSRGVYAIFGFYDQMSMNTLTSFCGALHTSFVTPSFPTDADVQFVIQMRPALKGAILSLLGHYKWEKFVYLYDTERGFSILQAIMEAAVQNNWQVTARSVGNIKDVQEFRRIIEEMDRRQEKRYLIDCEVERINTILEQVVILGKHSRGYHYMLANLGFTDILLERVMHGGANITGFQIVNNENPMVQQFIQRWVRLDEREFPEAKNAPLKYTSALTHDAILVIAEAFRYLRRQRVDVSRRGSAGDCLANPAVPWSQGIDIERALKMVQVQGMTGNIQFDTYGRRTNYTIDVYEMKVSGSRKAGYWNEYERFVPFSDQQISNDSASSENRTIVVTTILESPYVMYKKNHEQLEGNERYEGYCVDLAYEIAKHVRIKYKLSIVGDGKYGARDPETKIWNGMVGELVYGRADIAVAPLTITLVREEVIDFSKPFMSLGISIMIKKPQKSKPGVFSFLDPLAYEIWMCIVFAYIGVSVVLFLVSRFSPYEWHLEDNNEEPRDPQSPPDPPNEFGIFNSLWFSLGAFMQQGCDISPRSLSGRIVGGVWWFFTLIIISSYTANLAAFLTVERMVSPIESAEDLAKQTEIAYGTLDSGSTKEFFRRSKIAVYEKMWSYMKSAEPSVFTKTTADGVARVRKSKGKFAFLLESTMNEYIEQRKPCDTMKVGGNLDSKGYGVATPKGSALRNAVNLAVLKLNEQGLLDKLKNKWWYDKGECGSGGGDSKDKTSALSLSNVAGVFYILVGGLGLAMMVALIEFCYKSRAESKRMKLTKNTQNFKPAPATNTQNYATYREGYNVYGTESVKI
T2 sequence (P42263 29-894, species assumed): as the sequence (P42263 29-894) above

N#Cc1ccccc1-c1cc(-c2ccccn2)cn(-c2ccccc2)c1=O [perampanel, 3-(2-Cyanophenyl)-5-(2-pyridyl)-1-phenyl-1,2-dihydropyridin-2-one]
seizure activity ([1]; perampanel 100 nM, in the absence of decanoic acid): 95.6% | IC50 (AMPA receptor GluA1/2; [7]): 1.12 µM | reduction in the IC50 value for perampanel (AMPA receptor GluA1/2; in combination with decanoic acid, GluA1/2): ~3 fold | manner of inhibition of AMPA receptor currents (AMPA receptor GluA1/2; increasing glutamate concentrations not reversing inhibition (FIG. 1C)): non-competitive | IC50 (AMPA receptor GluA1/2; perampanel IC50 in GluA1/2): 2.1 µM | IC50 (AMPA receptor GluA1/2; perampanel IC50 in GluA1/2, in the absence of DA (FIG. 2F)): 6.2 µM | IC50 (AMPA receptor GluA1/2; perampanel IC50 in GluA1/2, in the presence of DA): 2.2 µM | Emax at 2.5 µM (AMPA receptor GluA1/2; [8]): 75.2% | Emax at 5 µM (AMPA receptor GluA1/2; [8]): 16.9% | reduction of glutamate-induced currents ([2]; perampanel 20 μM): 94.7% | reduction of glutamate-induced currents ([3]; perampanel 20 μM): 54.3% | IC50 (AMPA receptor GluA2/3; [7]): 1.51 µM | reduction in the IC50 value for perampanel (AMPA receptor GluA2/3; in combination with decanoic acid, GluA2/3): ~3 fold | IC50 (AMPA receptor GluA2/3; perampanel IC50 in GluA2/3, in the absence of DA (FIG. 2E)): 5.1 µM | IC50 (AMPA receptor GluA2/3; perampanel IC50 in GluA2/3, in the presence of DA at 50 mM): 1.7 µM | IC50 (AMPA receptor GluA2/3; perampanel IC50 in GluA2/3, in the presence of DA at 100 Mm): 1.6 µM | increase in the inhibition of the AMPA receptor by perampanel (AMPA receptor GluA2/3; with 100 μM decanoic acid, subunit combination not specified): 3 fold

CCCCCCCCCC(=O)O [decanoic acid]
IC50 ([1]; at 100 nM perampanel): 196 µM | IC50 ([1]; at 500 nM perampanel): 122 µM | IC50 ([1]; without perampanel): 352 µM | seizure activity ([1]; decanoic acid 10 μM combined with perampanel 100 nM): 76.8% | seizure activity (baseline inhibition reduced to) ([1]; decanoic acid 10 μM with perampanel 500 nM): 69.6% | concentration giving block of epileptiform activity ([1]; decanoic acid alone): 1000 µM | concentration at which epileptiform activity was reduced ([1]; decanoic acid alone, increasing concentrations): 300 µM | concentration giving block in seizure activity ([1]; decanoic acid combined with perampanel 100 nM): 600 µM | IC50 (AMPA receptor GluA1/2; in the absence of perampanel, read-out: decanoic acid IC50 for GluA1/2): 920 µM | IC50 (AMPA receptor GluA1/2; in the presence of 1 μM perampanel, read-out: decanoic acid IC50 for GluA1/2): 210 µM | IC50 (AMPA receptor GluA1/2; in the presence of 4 μM perampanel, read-out: decanoic acid IC50 for GluA1/2): 90 µM | reduction of glutamate-induced currents ([2]; decanoic acid 1 mM): 74.5% | average concentration of decanoic acid in the brain [4]: around 110 μM | reduction of glutamate-induced currents ([3]; decanoic acid 1 mM): 72.8% | average concentration of decanoic acid in peripheral blood [5]: 157 µM | IC50 (AMPA receptor GluA2/3; in the absence of perampanel, read-out: decanoic acid IC50 for GluA2/3): 520 µM | IC50 (AMPA receptor GluA2/3; in the presence of 1 μM perampanel, read-out: decanoic acid IC50 for GluA2/3): 100 µM | IC50 (AMPA receptor GluA2/3; in the presence of 4 μM perampanel, read-out: decanoic acid IC50 for GluA2/3): 40 µM | ratio of decanoic acid in brain to blood plasma [6]: around 0.7
